Assay results published in publication PMC8918994, “Characterization of the Trimethylamine N-Oxide Transporter From Pelagibacter Strain HTCC1062 Reveals Its Oligotrophic Niche Adaption” (Frontiers in Microbiology, 2022).

How the values were obtained:
Experiment in all cases: isothermal titration calorimetry
Format in all cases: binding
TmoX1062 [1] = biological target: T1, TmoX1062 (Candidatus Pelagibacter communis, UniProt Q4FL33)
T1 construct: gene tmoX
T1 sequence (Q4FL33 25-314): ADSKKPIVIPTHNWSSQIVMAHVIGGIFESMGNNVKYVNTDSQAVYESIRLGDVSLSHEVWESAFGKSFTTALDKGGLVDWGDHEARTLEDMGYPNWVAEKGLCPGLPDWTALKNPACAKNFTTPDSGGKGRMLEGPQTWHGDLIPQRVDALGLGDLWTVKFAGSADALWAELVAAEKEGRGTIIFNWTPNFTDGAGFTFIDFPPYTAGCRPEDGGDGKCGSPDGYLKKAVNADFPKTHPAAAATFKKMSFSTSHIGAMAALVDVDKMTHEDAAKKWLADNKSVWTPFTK
Source text: isothermal titration calorimetry on TmoX1062

TmoX1062 [2] = biological target: T2, TmoX1062 (Candidatus Pelagibacter communis, UniProt Q4FL33, W212A); conditions: 10 mM Tris-HCl pH 8.0, 100 mM NaCl
T2 construct: gene tmoX

TmoX1062 [3] = biological target: T3, TmoX1062 (Candidatus Pelagibacter communis, UniProt Q4FL33, E114A); conditions: 10 mM Tris-HCl pH 8.0, 100 mM NaCl
T3 construct: gene tmoX

TmoX1062 [4] = biological target: T4, TmoX1062 (Candidatus Pelagibacter communis, UniProt Q4FL33, W85A); conditions: 10 mM Tris-HCl pH 8.0, 100 mM NaCl
T4 construct: gene tmoX

TmoX1062 [5] = biological target: T5, TmoX1062 (Candidatus Pelagibacter communis, UniProt Q4FL33, W38A); conditions: 10 mM Tris-HCl pH 8.0, 100 mM NaCl
T5 construct: gene tmoX

TmoX1062 [6] = biological target: T6, TmoX1062 (Candidatus Pelagibacter communis, UniProt Q4FL33, F210A); conditions: 10 mM Tris-HCl pH 8.0, 100 mM NaCl
T6 construct: gene tmoX

TmoX1062 [7] = biological target: T7, TmoX1062 (Candidatus Pelagibacter communis, UniProt Q4FL33, F89A); conditions: 10 mM Tris-HCl pH 8.0, 100 mM NaCl
T7 construct: gene tmoX
T7 sequence (Q4FL33 25-314 F89A): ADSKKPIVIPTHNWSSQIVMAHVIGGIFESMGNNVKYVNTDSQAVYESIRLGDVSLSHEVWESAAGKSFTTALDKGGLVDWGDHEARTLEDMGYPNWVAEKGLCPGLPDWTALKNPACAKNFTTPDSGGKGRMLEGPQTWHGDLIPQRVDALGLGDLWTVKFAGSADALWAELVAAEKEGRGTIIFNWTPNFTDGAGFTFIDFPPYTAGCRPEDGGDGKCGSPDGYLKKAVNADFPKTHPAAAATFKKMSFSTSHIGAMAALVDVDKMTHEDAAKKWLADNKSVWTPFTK

T3 sequence (Q4FL33 25-314 E114A): as the sequence (Q4FL33 25-314 F89A) above, with A65F, E90A counted along it
T4 sequence (Q4FL33 25-314 W85A): as the sequence (Q4FL33 25-314 F89A) above, with W61A, A65F counted along it
T2 sequence (Q4FL33 25-314 W212A): as the sequence (Q4FL33 25-314 F89A) above, with A65F, W188A counted along it
T5 sequence (Q4FL33 25-314 W38A): as the sequence (Q4FL33 25-314 F89A) above, with W14A, A65F counted along it
T6 sequence (Q4FL33 25-314 F210A): as the sequence (Q4FL33 25-314 F89A) above, with A65F, F186A counted along it

| Kd (TmoX1062 [1]) [nM] | Structure (SMILES) | binding affinity relative to WT (100%) (TmoX1062 [2]) | binding affinity relative to WT (100%) (TmoX1062 [3]) | binding affinity relative to WT (100%) (TmoX1062 [4]) | binding affinity relative to WT (100%) (TmoX1062 [5]) | binding affinity relative to WT (100%) (TmoX1062 [6]) | binding affinity relative to WT (100%) (TmoX1062 [7]) |
| --- | --- | --- | --- | --- | --- | --- | --- |
| 2500 ± 330 | C[N+](C)(C)CCO [Choline] |  |  |  |  |  |  |
| 520 ± 120 | C[N+](C)(C)[O-] [TMAO] | Mutations of Trp85, Phe89 and Trp212 to alanine severely deceased the binding affinity of TmoX1062 | Mutation of Glu114 to alanine abolished the binding affinity of TmoX1062 toward TMAO | Mutations of Trp85, Phe89 and Trp212 to alanine severely deceased the binding affinity of TmoX1062 | mutants W38A and F210A still maintained a relatively high TMAO binding affinity | mutants W38A and F210A still maintained a relatively high TMAO binding affinity | Mutations of Trp85, Phe89 and Trp212 to alanine severely deceased the binding affinity of TmoX1062 |
